Data from PubChem BioAssay (NCI).
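Results reflect a 48-hour exposure of cells in 96-well plates to compound at five concentrations. TGI denotes the concentration required for complete inhibition of growth.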

Tests used:
Test in all cases: NCI anticancer screen, dose series, 48 h
[1] = test system: HT29 colon
[2] = test system: NCI-H23 lung
[3] = test system: KM12 colon
[4] = test system: HOP-92 NSCLC
[5] = test system: SK-MEL-2 melanoma
[6] = test system: SR leukemia
[7] = test system: CCRF-CEM leukemia
[8] = test system: U251 CNS
[9] = test system: 786-0 renal
[10] = test system: RPMI-8226 leukemia
[11] = test system: MALME-3M melanoma
[12] = test system: HL-60(TB) leukemia
[13] = test system: NCI-H226 lung
[14] = test system: SN12C renal
[15] = test system: SK-MEL-28 melanoma
[16] = test system: CAKI-1 renal
[17] = test system: OVCAR-5 ovarian
[18] = test system: TK-10 renal
[19] = test system: UACC-257 melanoma
[20] = test system: UACC-62 melanoma
[21] = test system: HCT-15 colon
[22] = test system: SK-MEL-5 melanoma
[23] = test system: SW-620 colon
[24] = test system: RXF 393 renal
[25] = test system: K-562 leukemia
[26] = test system: SK-OV-3 ovarian
[27] = test system: LXFL 529 NSCLC
[28] = test system: OVCAR-4 ovarian
[29] = test system: HOP-62 NSCLC
[30] = test system: DMS 273 small cell lung
[31] = test system: HCT-116 colon
[32] = test system: DMS 114 small cell lung
[33] = test system: ACHN renal
[34] = test system: SF-295 CNS
[35] = test system: SF-539 CNS
[36] = test system: NCI-H522 lung
[37] = test system: OVCAR-8 ovarian
[38] = test system: NCI-H460 lung
[39] = test system: HOP-18 NSCLC
[40] = test system: SF-268 CNS
[41] = test system: DLD-1 colon
[42] = test system: COLO 205 colon
[43] = test system: SNB-75 CNS
[44] = test system: UO-31 renal
[45] = test system: M14 melanoma
[46] = test system: MOLT-4 leukemia
[47] = test system: M19-MEL melanoma
[48] = test system: A549 NSCLC
[49] = test system: LOX IMVI melanoma
[50] = test system: IGROV1 ovarian
[51] = test system: DU-145 prostate
[52] = test system: NCI/ADR-RES ovarian
[53] = test system: SNB-19 CNS
[54] = test system: BT-549 breast
[55] = test system: T-47D breast
[56] = test system: HS 578T breast
[57] = test system: MDA-MB-231 breast
[58] = test system: OVCAR-3 ovarian
[59] = test system: HCC-2998 colon
[60] = test system: EKVX NSCLC
[61] = test system: A498 renal
[62] = test system: MDA-N
[63] = test system: MDA-MB-435
[64] = test system: PC-3 prostate
[65] = test system: MCF7 breast
[66] = test system: KM20L2 colon
[67] = test system: XF 498 CNS

COc1ccc(C2S/C(=C\c3cc(OC)c(OC)c(OC)c3)C(=O)N2NC(=O)Cc2ccccc2)cc1 (centres undefined)
TGI [1]: > 100 µM | TGI [2]: > 100 µM | TGI [3]: > 100 µM | TGI [4]: > 100 µM | TGI [5]: > 100 µM | TGI [6]: > 100 µM | TGI [7]: > 100 µM | TGI [8]: > 100 µM | TGI [9]: > 100 µM | TGI [10]: > 100 µM | TGI [11]: > 100 µM | TGI [12]: > 100 µM | TGI [13]: > 100 µM | TGI [14]: > 100 µM | TGI [15]: > 100 µM | TGI [16]: > 100 µM | TGI [17]: > 100 µM | TGI [18]: > 100 µM | TGI [19]: > 100 µM | TGI [20]: > 100 µM | TGI [21]: > 100 µM | TGI [22]: > 100 µM | TGI [23]: > 100 µM | TGI [24]: > 100 µM | TGI [25]: > 100 µM | TGI [26]: > 100 µM | TGI [27]: > 100 µM | TGI [28]: > 100 µM | TGI [29]: > 100 µM | TGI [30]: > 100 µM | TGI [31]: > 100 µM | TGI [32]: > 100 µM | TGI [33]: > 100 µM | TGI [34]: > 100 µM | TGI [35]: > 100 µM | TGI [36]: > 100 µM | TGI [37]: > 100 µM | TGI [38]: > 100 µM | TGI [39]: > 100 µM | TGI [40]: > 100 µM | TGI [41]: > 100 µM | TGI [42]: > 100 µM | TGI [43]: > 100 µM | TGI [44]: > 100 µM | TGI [45]: > 100 µM | TGI [46]: > 100 µM | TGI [47]: > 100 µM | TGI [48]: > 100 µM | TGI [49]: > 100 µM | TGI [50]: > 100 µM

CC1(CCc2ccccc2)CC1(Br)Br (centres undefined)
TGI [1]: > 100 µM | TGI [2]: > 100 µM | TGI [3]: > 100 µM | TGI [4]: 60.2 µM | TGI [5]: 36.1 µM | TGI [51]: > 100 µM | TGI [6]: 41.6 µM | TGI [7]: 67.7 µM | TGI [8]: > 100 µM | TGI [9]: 57.5 µM | TGI [10]: 44.8 µM | TGI [52]: > 100 µM | TGI [11]: 68.3 µM | TGI [12]: 41.9 µM | TGI [13]: 77.1 µM | TGI [53]: > 100 µM | TGI [14]: 38.1 µM | TGI [54]: > 100 µM | TGI [15]: > 100 µM | TGI [55]: > 100 µM | TGI [16]: > 100 µM | TGI [56]: > 100 µM | TGI [57]: > 100 µM | TGI [17]: > 100 µM | TGI [19]: 83.6 µM | TGI [20]: > 100 µM | TGI [58]: 39.9 µM | TGI [59]: 76.2 µM | TGI [21]: > 100 µM | TGI [22]: 30.1 µM | TGI [23]: > 100 µM | TGI [24]: 41.2 µM | TGI [25]: 38.2 µM | TGI [60]: 40 µM | TGI [26]: > 100 µM | TGI [28]: > 100 µM | TGI [29]: > 100 µM | TGI [61]: > 100 µM | TGI [31]: > 100 µM | TGI [33]: 61 µM | TGI [62]: > 100 µM | TGI [34]: > 100 µM | TGI [35]: > 100 µM | TGI [63]: 60.1 µM | TGI [36]: 61.5 µM | TGI [37]: 50.8 µM | TGI [38]: > 100 µM | TGI [64]: > 100 µM | TGI [40]: > 100 µM | TGI [42]: 51.7 µM | TGI [43]: > 100 µM | TGI [44]: > 100 µM | TGI [45]: > 100 µM | TGI [46]: 56 µM | TGI [65]: > 100 µM | TGI [48]: > 100 µM | TGI [49]: 37.4 µM | TGI [50]: > 100 µM

Cn1nc(-c2ccccc2)c(N=[N+]=[N-])cc1=O
TGI [1]: > 100 µM | TGI [2]: > 100 µM | TGI [3]: > 100 µM | TGI [66]: > 100 µM | TGI [6]: > 100 µM | TGI [7]: > 100 µM | TGI [8]: > 100 µM | TGI [9]: > 100 µM | TGI [10]: > 100 µM | TGI [11]: > 100 µM | TGI [12]: > 100 µM | TGI [13]: > 100 µM | TGI [53]: > 100 µM | TGI [14]: > 100 µM | TGI [15]: > 100 µM | TGI [16]: > 100 µM | TGI [17]: > 100 µM | TGI [18]: > 100 µM | TGI [19]: > 100 µM | TGI [20]: > 100 µM | TGI [58]: > 100 µM | TGI [59]: > 100 µM | TGI [21]: > 100 µM | TGI [22]: > 100 µM | TGI [23]: > 100 µM | TGI [24]: > 100 µM | TGI [25]: > 100 µM | TGI [60]: > 100 µM | TGI [26]: > 100 µM | TGI [27]: > 100 µM | TGI [28]: > 100 µM | TGI [29]: > 100 µM | TGI [61]: > 100 µM | TGI [30]: > 100 µM | TGI [31]: > 100 µM | TGI [32]: > 100 µM | TGI [33]: > 100 µM | TGI [34]: > 100 µM | TGI [35]: > 100 µM | TGI [36]: > 100 µM | TGI [37]: > 100 µM | TGI [38]: > 100 µM | TGI [40]: > 100 µM | TGI [42]: > 100 µM | TGI [44]: > 100 µM | TGI [67]: > 100 µM | TGI [45]: > 100 µM | TGI [46]: > 100 µM | TGI [47]: > 100 µM | TGI [48]: > 100 µM | TGI [49]: > 100 µM | TGI [50]: > 100 µM

COc1ccc2c(c1)c(=O)c1c(NCCCN(C)CCCNc3ccc4c(=O)n(CCN(C)C)c(=O)n5c6ccc(OC)cc6c(=O)c3c45)ccc3c(=O)n(CCN(C)C)c(=O)n2c31
TGI [1]: 1.28 µM | TGI [2]: 0.704 µM | TGI [3]: 1.11 µM | TGI [4]: 0.941 µM | TGI [5]: 2.44 µM | TGI [51]: 1.18 µM | TGI [6]: 0.255 µM | TGI [7]: 0.049 µM | TGI [8]: 1.26 µM | TGI [9]: 1.48 µM | TGI [10]: 0.176 µM | TGI [52]: 2.26 µM | TGI [11]: 2.42 µM | TGI [12]: 0.963 µM | TGI [13]: 0.409 µM | TGI [53]: 2.17 µM | TGI [14]: 1.43 µM | TGI [54]: 2.12 µM | TGI [15]: 2.32 µM | TGI [55]: 9.43 µM | TGI [16]: 0.784 µM | TGI [56]: 1.73 µM | TGI [57]: 2.56 µM | TGI [17]: 3.63 µM | TGI [18]: 6.6 µM | TGI [19]: 2.11 µM | TGI [20]: 0.956 µM | TGI [58]: 2.56 µM | TGI [59]: 0.544 µM | TGI [21]: 0.617 µM | TGI [22]: 0.813 µM | TGI [23]: 0.752 µM | TGI [24]: 0.602 µM | TGI [25]: 1.11 µM | TGI [60]: 1.3 µM | TGI [26]: 4.98 µM | TGI [28]: < 0.049 µM | TGI [29]: 1.04 µM | TGI [61]: 3.39 µM | TGI [31]: 1.13 µM | TGI [33]: 1.42 µM | TGI [62]: 1.49 µM | TGI [34]: 3.48 µM | TGI [35]: 1.95 µM | TGI [63]: 0.756 µM | TGI [36]: 0.544 µM | TGI [37]: 2.65 µM | TGI [38]: 0.209 µM | TGI [64]: 0.858 µM | TGI [40]: 1.88 µM | TGI [42]: 0.803 µM | TGI [43]: 0.216 µM | TGI [44]: 1.01 µM | TGI [45]: 2.58 µM | TGI [46]: 0.118 µM | TGI [65]: 1.12 µM | TGI [48]: 1.26 µM | TGI [49]: 0.161 µM | TGI [50]: 0.584 µM
